From US11919901B2 (Syndax Pharmaceuticals, Inc., priority 2021, dated 2024)

test system: MV4-11 cells; experiment: Cell proliferation assay MV4;11 (CellTiter-Glo, 72 hours); assay type: cell-based; details: Homo sapiens, MV4-11, 72 h, read-out: MV4; 11 IC50 (nM)
How it was run: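 Luminescent CellTiter-Glo readout after 72 h culture, 37 °C, 5% CO2, expressed relative to vehicle-treated wells, with maximal inhibition taken at the highest dose. MLL-rearranged MV4-11 leukemia cells; final compound range 0.632 to 2000 nM in eight steps.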

In the case of CC(C)N(CC(F)F)C(=O)c1cc(F)ccc1Oc1cncnc1N1CC2(CCN(C[C@@H]3CC[C@@H](NS(=O)(=O)NCC(F)F)CO3)CC2)C1 [Example 235, N-(2,2-Difluoroethyl)-2-((4-(7-(((2S,5R)-5-((N-(2,2-difluoroethyl)sulfamoyl)amino)tetrahydro-2H-pyran-2-yl)methyl)-2,7-diazaspiro[3.5]nonan-2-yl)pyrimidin-5-yl)oxy)-5-fluoro-N-isopropylbenzamide], the IC50 is reported as less than 100 nM.

same assay, conditions: Homo sapiens; MV4;11 leukemia cell line, 72 hours; read-out: MV4; 11 IC50

CC(C)N(C(=O)c1cc(F)ccc1Oc1nncnc1N1CC2(CCN(C[C@@H]3CC[C@@H](NS(=O)(=O)N4CCC4)CO3)CC2)C1)C(C)C [Example 199, 2-((5-(7-(((2S,5R)-5-(Azetidine-1-sulfonamido)tetrahydro-2H-pyran-2-yl)methyl)-2,7-diazaspiro[3.5]nonan-2-yl)-1,2,4-triazin-6-yl)oxy)-5-fluoro-N,N-diisopropylbenzamide] and CC(C)N(C(=O)c1cc(F)ccc1Oc1cncnc1N1CC2(CCN(C[C@@H]3CC[C@@H](NS(=O)(=O)N4CC5(CCO5)C4)CO3)CC2)C1)C(C)C [Example 221, 2-((4-(7-(((2S,5R)-5-(1-Oxa-6-azaspiro[3.3]heptane-6-sulfonamido)tetrahydro-2H-pyran-2-yl)methyl)-2,7-diazaspiro[3.5]nonan-2-yl)pyrimidin-5-yl)oxy)-5-fluoro-N,N-diisopropylbenzamide] cannot be ordered by IC50: less than 100 nM for the first, less than 100 nM for the second.

C[C@@H]1COC[C@@H](C)N1C(=O)c1cc(F)ccc1Oc1cncnc1N1CC2(CCN(C[C@@H]3CC[C@@H](NS(=O)(=O)N4CCC[C@@H]4C)CO3)CC2)C1 [Example 209, (S)-N-((3R,6S)-6-((2-(5-(2-((3R,5R)-3,5-Dimethylmorpholine-4-carbonyl)-4-fluorophenoxy)pyrimidin-4-yl)-2,7-diazaspiro[3.5]nonan-7-yl)methyl)tetrahydro-2H-pyran-3-yl)-2-methylpyrrolidine-1-sulfonamide] and CC(C)N(C(=O)c1cc(F)ccc1Oc1cncnc1N1CC2(CCN(C[C@@H]3CC[C@@H](NS(=O)(=O)N4CCC4)CO3)CC2)C1)C1COC1 [Example 248, 2-((4-(7-(((2S,5R)-5-(Azetidine-1-sulfonamido)tetrahydro-2H-pyran-2-yl)methyl)-2,7-diazaspiro[3.5]nonan-2-yl)pyrimidin-5-yl)oxy)-5-fluoro-N-isopropyl-N-(oxetan-3-yl)benzamide] cannot be ordered by IC50: less than 100 nM for the first, less than 100 nM for the second.

CC(C)N(CC(F)F)C(=O)c1cc(F)ccc1Oc1cncnc1N1CC2(CCN(C[C@@H]3CC[C@@H](NS(=O)(=O)N(C)CCCO)CO3)CC2)C1 [Example 214, N-(2,2-difluoroethyl)-5-fluoro-2-((4-(7-(((2S,5R)-5-((N-(3-hydroxypropyl)-N-methylsulfamoyl)amino)tetrahydro-2H-pyran-2-yl)methyl)-2,7-diazaspiro[3.5]nonan-2-yl)pyrimidin-5-yl)oxy)-N-isopropylbenzamide] and CC(C)N(CC(F)F)C(=O)c1cc(F)ccc1Oc1cncnc1N1CC2(CCN(C[C@@H]3CC[C@@H](NS(=O)(=O)N(C)CCO)CO3)CC2)C1 [Example 239, N-(2,2-difluoroethyl)-5-fluoro-2-((4-(7-(((2S,5R)-5-((N-(2-hydroxyethyl)-N-methylsulfamoyl)amino)tetrahydro-2H-pyran-2-yl)methyl)-2,7-diazaspiro[3.5]nonan-2-yl)pyrimidin-5-yl)oxy)-N-isopropylbenzamide] cannot be ordered by IC50: less than 100 nM for the first, less than 100 nM for the second.

First: CCN(C(=O)c1cc(F)ccc1Oc1cncnc1N1CC2(CCN(C[C@@H]3CC[C@@H](NC(=O)Nc4ccccc4)CO3)CC2)C1)C(C)C [Example 215, N-Ethyl-5-fluoro-N-isopropyl-2-((4-(7-(((2S,5R)-5-(3-phenylureido)tetrahydro-2H-pyran-2-yl)methyl)-2,7-diazaspiro[3.5]nonan-2-yl)pyrimidin-5-yl)oxy)benzamide]
Second: COCCN(C(=O)c1cc(F)ccc1Oc1cncnc1N1CC2(CCN(C[C@@H]3CC[C@@H](NS(=O)(=O)c4ccccc4)CO3)CC2)C1)C(C)C [Example 254, 5-Fluoro-N-isopropyl-N-(2-methoxyethyl)-2-((4-(7-(((2S,5R)-5-(phenylsulfonamido)tetrahydro-2H-pyran-2-yl)methyl)-2,7-diazaspiro[3.5]nonan-2-yl)pyrimidin-5-yl)oxy)benzamide]
The IC50 of the first is higher: 100 to 1000 nM for the first, less than 100 nM for the second.

CCN(C(=O)c1cc(F)ccc1Oc1cnc(C)nc1N1CC2(CCN(C[C@@H]3CC[C@@H](NS(=O)(=O)CC)CO3)CC2)C1)C(C)C [Example 216, N-Ethyl-2-((4-(7-(((2S,5R)-5-(ethylsulfonamido)tetrahydro-2H-pyran-2-yl)methyl)-2,7-diazaspiro[3.5]nonan-2-yl)-2-methylpyrimidin-5-yl)oxy)-5-fluoro-N-isopropylbenzamide] and CCN(C(=O)c1cc(F)ccc1Oc1cncnc1N1CC2(CCN(C[C@@H]3CC[C@@H](NS(=O)(=O)CCN(C)C)CO3)CC2)C1)C(C)C [Example 220, 2-((4-(7-(((2S,5R)-5-((2-(Dimethylamino)ethyl)sulfonamido)tetrahydro-2H-pyran-2-yl)methyl)-2,7-diazaspiro[3.5]nonan-2-yl)pyrimidin-5-yl)oxy)-N-ethyl-5-fluoro-N-isopropylbenzamide] fall in the same range of IC50: 100 to 1000 nM for the first, 100 to 1000 nM for the second.

C=CS(=O)(=O)N[C@@H]1CC[C@@H](CN2CCC3(CC2)CN(c2ncncc2Oc2ccc(F)cc2C(=O)N(CC)C(C)C)C3)OC1 [Example 219, N-Ethyl-5-fluoro-N-isopropyl-2-((4-(7-(((2S,5R)-5-(vinylsulfonamido)tetrahydro-2H-pyran-2-yl)methyl)-2,7-diazaspiro[3.5]nonan-2-yl)pyrimidin-5-yl)oxy)benzamide] and CC(C)N(CC(F)F)C(=O)c1cc(F)ccc1Oc1cncnc1N1CC2(CCN(C[C@@H]3CC[C@@H](NS(N)(=O)=O)CO3)CC2)C1 [Example 240, N-(2,2-Difluoroethyl)-5-fluoro-N-isopropyl-2-((4-(7-(((2S,5R)-5-(sulfamoylamino)tetrahydro-2H-pyran-2-yl)methyl)-2,7-diazaspiro[3.5]nonan-2-yl)pyrimidin-5-yl)oxy)benzamide] cannot be ordered by IC50: less than 100 nM for the first, less than 100 nM for the second.

CC(C)N(C(=O)c1cc(F)ccc1Oc1cncnc1N1CC2(CCN(C[C@@H]3CC[C@@H](NS(=O)(=O)N4CC5(COC5)C4)CO3)CC2)C1)C(C)C [Example 222, 2-((4-(7-(((2S,5R)-5-(2-Oxa-6-azaspiro[3.3]heptane-6-sulfonamido)tetrahydro-2H-pyran-2-yl)methyl)-2,7-diazaspiro[3.5]nonan-2-yl)pyrimidin-5-yl)oxy)-5-fluoro-N,N-diisopropylbenzamide] and CC(C)N(C(=O)c1cc(F)ccc1Oc1cncnc1N1CC2(CCN(C[C@@H]3CC[C@@H](NS(=O)(=O)N4CC5(CCOC5)C4)CO3)CC2)C1)C(C)C [Example 223, 2-((4-(7-(((2S,5R)-5-(6-Oxa-2-azaspiro[3.4]octane-2-sulfonamido)tetrahydro-2H-pyran-2-yl)methyl)-2,7-diazaspiro[3.5]nonan-2-yl)pyrimidin-5-yl)oxy)-5-fluoro-N,N-diisopropylbenzamide] cannot be ordered by IC50: less than 100 nM for the first, less than 100 nM for the second.

CCS(=O)(=O)N[C@@H]1CC[C@@H](CN2CCC3(CC2)CN(c2ncncc2Oc2ccc(F)cc2C(=O)N(CCC(F)F)C(C)C)C3)OC1 [Example 242, N-(3,3-Difluoropropyl)-2-((4-(7-(((2S,5R)-5-(ethylsulfonamido)tetrahydro-2H-pyran-2-yl)methyl)-2,7-diazaspiro[3.5]nonan-2-yl)pyrimidin-5-yl)oxy)-5-fluoro-N-isopropylbenzamide] and CCS(=O)(=O)N[C@@H]1CC[C@@H](CN2CCC3(CC2)CN(c2ncncc2Oc2ccc(F)cc2C(=O)N(C(C)C)C2CCOCC2)C3)OC1 [Example 250, 2-((4-(7-(((2S,5R)-5-(Ethylsulfonamido)tetrahydro-2H-pyran-2-yl)methyl)-2,7-diazaspiro[3.5]nonan-2-yl)pyrimidin-5-yl)oxy)-5-fluoro-N-isopropyl-N-(tetrahydro-2H-pyran-4-yl)benzamide] cannot be ordered by IC50: less than 100 nM for the first, less than 100 nM for the second.

CC(C)N(C(=O)c1cc(F)ccc1Oc1cncnc1N1CC2(CCN(C[C@@H]3CC[C@@H](NS(=O)(=O)C4CC4)CO3)CC2)C1)C1COC1 [Example 247, 2-((4-(7-(((2S,5R)-5-(Cyclopropanesulfonamido)tetrahydro-2H-pyran-2-yl)methyl)-2,7-diazaspiro[3.5]nonan-2-yl)pyrimidin-5-yl)oxy)-5-fluoro-N-isopropyl-N-(oxetan-3-yl)benzamide] and CC(C)N(C(=O)c1cc(F)ccc1Oc1cncnc1N1CC2(CCN(C[C@@H]3CC[C@@H](NS(=O)(=O)N(C)C)CO3)CC2)C1)C1COC1 [Example 249, 2-((4-(7-(((2S,5R)-5-((N,N-Dimethylsulfamoyl)amino)tetrahydro-2H-pyran-2-yl)methyl)-2,7-diazaspiro[3.5]nonan-2-yl)pyrimidin-5-yl)oxy)-5-fluoro-N-isopropyl-N-(oxetan-3-yl)benzamide] cannot be ordered by IC50: less than 100 nM for the first, less than 100 nM for the second.

CCS(=O)(=O)N[C@@H]1CC[C@@H](CN2CCC3(CC2)CN(c2ncncc2Oc2ccc(F)cc2C(=O)N(C(C)C)[C@@H]2C[C@@H]4CC[C@H]2O4)C3)OC1 [Example 251, N-((1R,2R,4S)-7-Oxabicyclo[2.2.1]heptan-2-yl)-2-((4-(7-(((2S,5R)-5-(ethylsulfonamido)tetrahydro-2H-pyran-2-yl)methyl)-2,7-diazaspiro[3.5]nonan-2-yl)pyrimidin-5-yl)oxy)-5-fluoro-N-isopropylbenzamide] and CCS(=O)(=O)N[C@@H]1CC[C@@H](CN2CCC3(CC2)CN(c2ncncc2Oc2ccc(F)cc2C(=O)N(C(C)C)C2CC4(COC4)C2)C3)OC1 [Example 252, 2-((4-(7-(((2S,5R)-5-(Ethylsulfonamido)tetrahydro-2H-pyran-2-yl)methyl)-2,7-diazaspiro[3.5]nonan-2-yl)pyrimidin-5-yl)oxy)-5-fluoro-N-isopropyl-N-(2-oxaspiro[3.3]heptan-6-yl)benzamide] cannot be ordered by IC50: less than 100 nM for the first, less than 100 nM for the second.
